Consider 13 molecules from patent publication US8741932B2, “Imidazopyridine derivatives” (Piramal Enterprises Limited, priority 2009, dated 2014).

For one assay, the system named is IL-6. Kind of assay: Human monocyte assay, LPS-stimulated IL-6. The assay is classed as cell-based. The conditions noted are these: Monocyte; human monocytes, 1 μg/ml LPS, 5 hours. As to the method: The assay was designed as in the reference, Physiol.
Peripheral blood mononuclear cells (hPBMC) were harvested from human blood and suspended in RPMI 1640 culture medium containing 10% FCS, 100 U/mL penicillin and […] streptomycin (assay medium). Monocytes in the hPBMCs were counted using a Coulter Counter following which the cells were resuspended at 2×10^5 monocytes/mL. A cell suspension containing 2×10^4 monocytes was aliquoted per well of a 96-well plate. Subsequently, the hPBMCs were incubated for 4-5 hours at 37° C., 5% CO2 (During the incubation, the monocytes adhered to the bottom of 96-well plastic culture plate). Following the incubation, the non-adherent lymphocytes were washed with assay medium and the adherent monocytes re-fed with assay medium. After a 48-hour incubation period (37° C., 5% CO2), monocytes were pretreated with various concentrations of representative compounds of present invention (refer to table 6 and 7) (prepared in DMSO) or vehicle (0.5% DMSO) for 30 minutes and stimulated with 1 μg/ml LPS (Escherchia coli 0111:B4, Sigma Chemical Co., St. Louis, Mo.). The incubation was continued for 5 hours at 37° C., 5% CO2. Supernatants were harvested, assayed for IL-6 and TNF-α by ELISA as described by the manufacturer (BD Biosciences, USA). Dexamethasone (10 μM) was used as standard for this assay. […] Biological results for both IL-6 and TNFα are indicated in Table 6 and Table 7 respectively.
As a reminder, the IC50 is the concentration at which inhibition is half-maximal. Read a low IC50 as inhibition by little substance. For `CN(/N=C/c1cnc2ccc(-c3cccnc3)cn12)S(=O)(=O)c1ccc(-c2ccccc2)cc1` [Example 72, (E)-N-methyl-N′-((6-(pyridin-3-yl)imidazo[1,2-a]pyridin-3-yl)methylene)biphenyl-4-sulfonohydrazide], the IC50 was ≥ 5 µM.
Still for that read-out and setting: next, `CN(/N=C/c1cnc2ccc(-c3cccnc3)cn12)S(=O)(=O)c1ccc(Cl)c([N+](=O)[O-])c1` [Example 74, (E)-4-chloro-N-methyl-3-nitro-N′-((6-(pyridin-3-yl)imidazo[1,2-a]pyridin-3-yl)methylene) benzenesulfonohydrazide]: 0.001 to 5 µM; `Cc1ccc(F)cc1S(=O)(=O)N(C)/N=C/c1cnc2ccc(-c3cccnc3F)cn12` [Example 87, (E)-5-Fluoro-N′-((6-(2-fluoropyridin-3-yl)imidazo[1,2-a]pyridin-3-yl)methylene)-N,2-dimethylbenzenesulfonohydrazide]: 0.001 to 5 µM; `Cc1cc(-c2cccnc2)cn2c(/C=N/N(C)S(=O)(=O)c3ccccc3C#N)cnc12` [Example 104, (E)-2-cyano-N-methyl-N′-((8-methyl-6-(pyridin-3-yl)imidazo[1,2-a]pyridin-3-yl)methylene)benzenesulfonohydrazide]: ≥ 5 µM.
On to `Cc1cc(-c2cccnc2)cn2c(/C=N/N(C)S(=O)(=O)c3cccc(C#N)c3)cnc12` [Example 106, (E)-3-cyano-N-methyl-N′-((8-methyl-6-(pyridin-3-yl)imidazo[1,2-a]pyridin-3-yl)methylene)benzenesulfonohydrazide], for which the 50% inhibitory concentration (IC50) is ≥ 5 µM.
The same measure, in the same setting: next, `Cc1cc(S(=O)(=O)N(C)/N=C/c2cnc3c(C)cc(-c4cccnc4)cn23)ccc1Br` [Example 107, (E)-4-Bromo-N,3-dimethyl-N′-((8-methyl-6-(pyridin-3-yl)imidazo[1,2-a]pyridin-3-yl)methylene)benzenesulfonohydrazide]: 0.001 to 5 µM; `Cc1cc(-c2cccnc2)cn2c(/C=N/N(C)S(=O)(=O)c3cccc([N+](=O)[O-])c3)cnc12` [Example 109, (E)-N-methyl-N′-((8-methyl-6-(pyridin-3-yl)imidazo[1,2-a]pyridin-3-yl)methylene)-3-nitrobenzenesulfonohydrazide]: ≥ 5 µM.
Turning to `Cc1cc(-c2cccnc2)cn2c(/C=N/N(C)S(=O)(=O)c3cccc(Cl)c3)cnc12` [Example 110, (E)-3-Chloro-N-methyl-N′-((8-methyl-6-(pyridin-3-yl)imidazo[1,2-a]pyridin-3-yl)methylene)benzenesulfonohydrazide], the IC50 is ≥ 5 µM.
The molecule `Cc1cc(-c2cccnc2)cn2c(/C=N/N(C)S(=O)(=O)c3ccc(Cl)c([N+](=O)[O-])c3)cnc12` [Example 113, (E)-4-Chloro-N-methyl-N′-((8-methyl-6-(pyridin-3-yl)imidazo[1,2-a]pyridin-3-yl)methylene)-3-nitrobenzenesulfonohydrazide] returned an IC50 of 0.001 to 5 µM.
As to `Cc1cc(-c2cccnc2)cn2c(/C=N/N(C)S(=O)(=O)c3ccc(F)cc3Br)cnc12` [Example 114, (E)-2-Bromo-4-fluoro-N-methyl-N′-((8-methyl-6-(pyridin-3-yl)imidazo[1,2-a]pyridin-3-yl)methylene)benzenesulfonohydrazide], the IC50 was ≥ 5 µM.

Still in this assay, the particulars now being: human monocytes, 1 μg/ml LPS, 5 hours.
`COC(=O)c1ccc(S(=O)(=O)N(C)/N=C/c2cnc3ccc(-c4cccnc4)cn23)o1` [Example 73, (E)-Methyl 5-(1-methyl-2-((6-(pyridin-3-yl)imidazo[1,2-a]pyridin-3-yl)methylene) hydrazinylsulfonyl) furan-2-carboxylate]: the half-inhibitory concentration (IC50) was ≥ 5 µM.
Same read-out and setting: next, `Cc1cc(-c2cccnc2)cn2c(/C=N/N(C)S(=O)(=O)c3cc(F)cc(F)c3)cnc12` [Example 101]: 0.001 to 5 µM; `Cc1cc(-c2cccnc2)cn2c(/C=N/N(C)S(=O)(=O)c3c(F)cc(F)cc3Br)cnc12` [Example 112]: ≥ 5 µM.
